Test results taken from patent publication US12643102B2, “Method of profiling a sample comprising a plurality of cells and a system for performing the same” (Massachusetts Institute of Technology, priority 2020, dated 2026).

System: WBCs from whole blood
Assay: DLD assay: WBC biophysical profiling (size Dapp, deformability CDMdot) after in vitro activation of whole blood
Type: cell-based
Settings: for WBC Dapp (average of L and L^-1 DLD assays): 2 hours incubation, undiluted whole blood at 37° C., 2.5 μL/min, n=5, healthy baseline 9.7±0.1 μm; for increase in WBC Dapp: 2 hours, versus healthy baseline
Method: The open reservoirs 102A, 102B and 102C facilitate easy sample loading, sample resuspension to prevent settling of cells and washing the reservoir to reuse the device. The required loaded volume per run is 10 μL and the reservoir can hold up to 25 μL of blood. As the fluid is withdrawn, the sample flows through a region comprising 21 DLD device segments sandwiched between two 1× phosphate-buffered saline (PBS) buffer streams (see Table 2). Each segment comprises an array of pillars and has a specific DLD critical cut-off size (Dc) determined by the empirical Equation (1): […]
where G is the regular spacing between pillars and θ is the gradient of the pillar array. This design is known as a chirped DLD array where each downstream segment has an increasing pillar row-shift gradient corresponding to an increasing Dc ranging from 6.0 to 16.0 μm in steps of 0.5 μm (see Methods). Immune cells flowing through the device 100 are deflected laterally only within DLD segments where cell sizes are larger than Dc; the cells therefore exit the device 100 at defined lateral positions depicted in the output region shown in FIG. 1A. The output of the sorting forms a spectrum in its size distribution (i.e., a biophysical parameter based on a distribution profile of the cells sorted by the array of pillars).
To evaluate the biophysical combinatorial immune profiling potential of DLD assay, a single biophysical size and deformability parameter is determined. For size parameters, the average Dapp for L and L^−1 assays was quantified at 2.5 μL/min, while a single cell deformability parameter (CDMdot) was emphasized by taking the product of the CDML and CDML^−1 measurements. Performing a product amplifies the deformability differences compared to CDML and CDML^−1 measurements individually (see FIG. 8). By combining the measurements of two DLD devices, a unique leukocyte biophysical fingerprint as a profiling tool to measure different states of WBC from whole blood in real-time was envisioned (see FIG. 1B).
Direct sample measurements enable the study of WBC biophysical profiles in different health states of an individual for healthy donors, patients admitted to the ED without signs of infection (ED Control), and patients with clear signs of infection and fulfilling at least two SIRS criteria (ED≥2 SIRS) (See Table 3). The second group are tests performed on blood, which have undergone external or in vitro test conditions to activate the WBCs. These include 5 ng/ml lipopolysaccharide (LPS), which mimics the bacteria coat that would trigger inflammation and phorbol 12-myristate 13-acetate (PMA) at 100 and 1000 nM, a known activator of WBCs. […]

**Q.** How did the “WBC Dapp (average of L and L^-1 DLD assays)” value (PMA 100 nM) turn out when `CCCCCCCCCCCCCC(=O)O[C@@H]1[C@@H](C)[C@@]2(O)[C@@H](C=C(CO)C[C@]3(O)C(=O)C(C)=C[C@@H]23)[C@@H]2C(C)(C)[C@]12OC(C)=O` [PMA, phorbol 12-myristate 13-acetate] was run?
**A.** 12.6±0.8 μm

**Q.** And the “increase in WBC Dapp” value (PMA 100 nM)?
**A.** 30%

**Q.** And the “WBC Dapp (average of L and L^-1 DLD assays)” value (PMA 1000 nM)?
**A.** 13.9±0.7 μm

**Q.** What about the “increase in WBC Dapp” value (PMA 1000 nM) of the same molecule?
**A.** 43%
